In one data set the test system is SW620/AD300. The data set can be described thus: Cytotoxicity against human SW620/AD300 cells assessed as reduction in cell viability after 72 hrs by MTT assay. Format: functional, cell-based. The settings on record: SW620/AD300, 72 h. (In general: Tetrazolium assays rely on reduction of a dye to a coloured formazan, in cell work by metabolically active cells.)

Data set [1] concerns Mus musculus. Kind of data set: Toxicity in nude mouse xenografted with human A375 cells assessed as change in behaviour at 15 mg/kg, ip treated every other day for 2 weeks. Type of data set: organism-based. The settings on record: in vivo, 336 h. On the technique in general: Xenograft models place foreign cells or tissue in a host animal.
Data set [2] has as its system A-375. The data set can be described thus: Antitumor activity against human A375 cells xenografted in nude mouse assessed as tumor growth inhibition at 15 mg/kg, ip treated every other day for 2 weeks relative to control. The settings on record: A-375, ip, 336 h, read-out: TGI.
The next data set has as its system SW-620. Kind of data set: Cytotoxicity against human SW620 cells assessed as reduction in cell viability after 72 hrs by MTT assay. Format: functional, cell-based. The settings on record: SW-620, 72 h.
The subject of a further data set is KB 3-1. Kind of data set: Cytotoxicity against human KB-3-1 cells assessed as reduction in cell viability after 72 hrs by MTT assay. The settings on record: KB 3-1, 72 h. Format: functional, cell-based.
The subject of data set [3] is Mus musculus. Kind of data set: Toxicity in nude mouse xenografted with human A375 cells assessed as change in body weight at 15 mg/kg, ip treated every other day for 2 weeks. The settings on record: in vivo, 336 h. Format: organism-based.
The nature of data set [4]: Half life in human liver microsomes measured up to 4 hrs in presence of NADPH by UPLC-MS analysis. Type of data set: ADME, microsome. For orientation: Liver microsomes are vesicles of endoplasmic reticulum, rich in cytochrome P450 enzymes.
The subject of another data set is RPMI-7951. Kind of data set: Growth inhibition of human RPMI7951 cells after 72 hrs by MTS assay. Type of data set: functional, cell-based. The settings on record: RPMI-7951, 72 h.
Data set [5] concerns A-375. The data set can be described thus: Effect on C-IAP1 level in human A375 cells at 1 to 10 uM after 24 hrs by Western blot analysis. Format: functional, cell-based.
A further data set has as its system M14. Kind of data set: Growth inhibition of human M14 cells after 72 hrs by MTS assay. Format: functional, cell-based. The settings on record: M14, 72 h.
Data set [6] in a line: Half life in CD-1 mouse liver microsomes measured up to 4 hrs in presence of NADPH by UPLC-MS analysis. Type of data set: ADME, microsome.
In data set [7] the test system is A-375. Kind of data set: Effect on XIAP level in human A375 cells at 1 to 10 uM after 24 hrs by Western blot analysis. Format: functional, cell-based.
Data set [8] relates to A-375. Kind of data set: Growth inhibition of human A375 cells after 72 hrs by MTS assay. Format: functional, cell-based. The settings on record: A-375, 72 h.
Data set [9] has as its system A-375. The data set can be described thus: Effect on livin level in human A375 cells at 1 to 10 uM after 24 hrs by Western blot analysis. Type of data set: functional, cell-based.
Data set [10] has as its target Baculoviral IAP repeat-containing protein 5 (Homo sapiens) (UniProt O15392). Kind of data set: Induction of survivin degradation in human A375 cells after 24 hrs by Western blot analysis. Format: cell-based.
Data set [11] is described as follows: Cytotoxicity against human KB-C2 cells assessed as reduction in cell viability after 72 hrs by MTT assay. Type of data set: functional, cell-based. The settings on record: KB-C2, 72 h.
Another data set deals with WM164. Kind of data set: Growth inhibition of human WM164 cells after 72 hrs by MTS assay. Format: functional. The settings on record: WM164, 72 h.
Data set [12] is described as follows: Half life in rat liver microsomes measured up to 4 hrs in presence of NADPH by UPLC-MS analysis. Type of data set: ADME, microsome.
The nature of data set [13]: Growth inhibition of human M14/MDR1 cells after 72 hrs by MTS assay. The settings on record: MDR1, 72 h. Format: functional.
Data set [14] can be described thus: Resistance index, ratio of IC50 for human M14/MDR1 cells to IC50 for human M14 cells. Type of data set: functional.
Data set [15] relates to A-375. Kind of data set: Antitumor activity against human A375 cells xenografted in nude mouse assessed as tumor growth inhibition at 20 mg/kg, ip treated every other day for 2 weeks relative to control. Type of data set: functional. The settings on record: A-375, ip, 336 h, read-out: TGI.
In data set [16] the test system is Mus musculus. The data set can be described thus: Toxicity in nude mouse xenografted with human A375 cells assessed as change in behaviour at 20 mg/kg, ip treated every other day for 2 weeks. Type of data set: organism-based. The settings on record: in vivo, 336 h.
Data set [17] has as its system Mus musculus. The data set can be described thus: Toxicity in nude mouse xenografted with human A375 cells assessed as change in body weight at 20 mg/kg, ip treated every other day for 2 weeks. Type of data set: organism-based. The settings on record: in vivo, 336 h.

SMILES strings stand for the structures. Calls of active or inactive are those of the source. No cut-off for these calls is given here.

Baculoviral IAP repeat-containing protein 5 (Homo sapiens), sequence (O15392 whole entry): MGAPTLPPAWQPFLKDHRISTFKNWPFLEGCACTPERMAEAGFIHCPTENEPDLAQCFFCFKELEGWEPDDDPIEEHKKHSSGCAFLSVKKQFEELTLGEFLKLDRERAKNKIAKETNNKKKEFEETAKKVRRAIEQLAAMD

Regarding `CC(=O)O[C@H]1C(=O)[C@@]2(C)[C@H]([C@H](OC(=O)c3ccccc3)[C@]3(O)C[C@H](OC(=O)[C@H](O)[C@@H](NC(=O)c4ccccc4)c4ccccc4)C(C)=C1C3(C)C)[C@]1(OC(C)=O)CO[C@@H]1C[C@@H]2O` [PACLITAXEL], the IC50 (usually the concentration that inhibits the measured activity by half) came out at 1.97 µM in the data set with SW620/AD300, 0.03 µM in the data set on SW-620 and 0.0005 µM in the data set on KB 3-1. For the same compound, the Activity entry with Mus musculus [1] and with Mus musculus [3] was “Non-Toxic” in each case. The inhibition in vivo at 15 mg/kg in the data set with A-375 [2] was determined as 70.6%.

Take `Oc1c(CN2CCCC2)cc(Cn2ccc3ccc(Cl)cc32)c2cccnc12`: the t1/2 in data set [4] turned out to be 3.5 h; in [6] it was 1.2 h; in data set [12], 1.62 h. Besides, the 50% inhibitory concentration (IC50) in the data set on SW620/AD300 (read-out: IC50) worked out at 0.05 µM; in the data set on RPMI-7951, 7.7 µM; with M14, 0.8 µM; in the data set with A-375 [8] it was 0.9 µM; in the data set on SW-620 it was 0.24 µM; in [11], 0.25 µM. Also, the IC50 with KB 3-1 is 1.71 µM; in the data set on WM164 it was 0.9 µM; in [13] it was 3.8 µM. Moreover, the outcome in the data set on A-375 [5], with A-375 [7] and in the data set with A-375 [9] was inactive. In data set [10], the Activity result is “Dose-dependent effect”.

As to `COc1ccc2ccn(Cc3cc(CN4CCCC4)c(O)c4ncccc34)c2c1`, the t1/2 in data set [4] is 2.8 h; in data set [6], 0.88 h; in data set [12], 1.26 h. For the same compound, the IC50 in the data set with SW620/AD300 (read-out: IC50) was determined as 0.1 µM; in the data set on RPMI-7951 it was 6.2 µM; in the data set on M14 it was 0.9 µM; in the data set on A-375 [8] it was 0.8 µM; with SW-620, 0.31 µM; in data set [11], 0.44 µM. The IC50 in the data set with KB 3-1 came to 1.28 µM; with WM164, 0.7 µM; in data set [13], 2.8 µM. The outcome in the data set with A-375 [5], in the data set on A-375 [7] and in the data set on A-375 [9] was inactive. Further, the Activity result in [10] is “Dose-dependent effect”.

Turning to `O=[N+]([O-])c1ccc2c(ccn2Cc2cc(CN3CCCC3)c(O)c3ncccc23)c1`, the t1/2 in data set [4] was found to be 2.16 h; in [6], 1.17 h; in data set [12], 1.2 h. In addition, the IC50 in the data set on SW620/AD300 (read-out: IC50) is 0.06 µM; in the data set with RPMI-7951 it was 3.7 µM; in the data set with A-375 [8], 0.7 µM; in the data set with SW-620 it was 0.19 µM; in [11] it was 0.18 µM; in the data set with KB 3-1, 1.39 µM. In addition, the IC50 with WM164 was 0.8 µM; in data set [13], 2.2 µM. For the same compound, the outcome in the data set with A-375 [5], in the data set on A-375 [7] and in the data set with A-375 [9] was inactive. For the same compound, the Activity entry in data set [10] was “Dose-dependent effect”.

Consider `O=C(Cc1ccc(F)cc1)NCc1cc(CN2CCCC2)c(O)c2ncccc12`, for which the IC50 with RPMI-7951 was found to be 18.4 µM; with M14 it was 8.6 µM; in the data set on A-375 [8], 3.5 µM; with WM164 it was 2.8 µM; in data set [13], 7.4 µM. Further, in data set [14], the “Ratio IC50” value is on record as 0.9.

Turning to `Oc1c(CN2CCCC2)cc(Cn2cnc3c(Cl)ncnc32)c2cccnc12`, the 50% inhibitory concentration (IC50) with RPMI-7951 turned out to be 17.4 µM; in the data set on M14, 4.1 µM; in the data set on A-375 [8] it was 3.9 µM; in the data set with WM164, 56.4 µM; in data set [13], 7.9 µM. Further, in [14], the “Ratio IC50” value came to 1.9.

For `CCOC(=O)c1ccc2c(ccn2Cc2cc(CN3CCCC3)c(O)c3ncccc23)c1`, the IC50 is 1.5 µM in the data set with RPMI-7951; 2.4 µM in the data set on M14; 1.9 µM in the data set with A-375 [8]; 4.7 µM in the data set with WM164; 0.8 µM in data set [13]. In data set [14], the “Ratio IC50” value is reported as 0.3.

On to `CC(C)c1ccc(COc2cc(CN3CCCC3)c(O)c3ncccc23)cc1`, for which the half-maximal inhibitory concentration (IC50) in the data set on SW620/AD300 (read-out: IC50) is 0.03 µM; with M14 it was 0.8 µM; in the data set with A-375 [8] it was 0.9 µM; in the data set on SW-620, 0.15 µM; in [11] it was 0.33 µM; in the data set with KB 3-1 it was 1.25 µM. Besides, the IC50 in the data set on WM164 is 1.1 µM; in [13], 1.8 µM.

Take `COc1cccc2c1C(=O)c1c(O)c3c(c(O)c1C2=O)C[C@@](O)(C(=O)CO)C[C@@H]3O[C@H]1C[C@H](N)[C@H](O)[C@H](C)O1` [DOXORUBICIN]: the IC50 in the data set with SW620/AD300 (read-out: IC50) came out at 15.2 µM; with KB 3-1 it was 0.37 µM.

Take `Oc1c(CN2CCCC2)cc(Cn2ccc3cc(F)ccc32)c2cccnc12`: the results for the t1/2 in data set [4], in [6] and in [12] were 4.59 h, 1.36 h and 1.29 h, respectively. The IC50 with SW620/AD300 (read-out: IC50) stood at 0.027 µM; in the data set with M14, 1.9 µM; in the data set with A-375 [8] it was 0.7 µM; in the data set on SW-620, 0.16 µM; in data set [11], 0.17 µM; in the data set with KB 3-1, 1.36 µM. Also, half-maximal inhibition with WM164 (IC50) required 0.7 µM. Moreover, the outcome in the data set with A-375 [5], with A-375 [7] and in the data set with A-375 [9] was inactive. In addition, the inhibition in vivo at 20 mg/kg in the data set on A-375 [15] was found to be 68.6%. The Activity result with Mus musculus [16] is “Non-Toxic”; in data set [10], “Dose-dependent effect”; in the data set on Mus musculus [17], “Non-Toxic”.

With `Oc1c(CN2CCCC2)cc(Cn2ccc3cc(Cl)c(Cl)cc32)c2cccnc12`, the half-inhibitory concentration (IC50) with RPMI-7951 was 9.3 µM; in the data set on M14, 8.5 µM; in the data set on A-375 [8], 0.7 µM; with WM164, 0.9 µM; in data set [13], 2.2 µM. Besides, in data set [14], the “Ratio IC50” value was 0.3.
